Consider four molecules from patent US11000033B2, “Ketone or oxime compound, and herbicide” (NISSAN CHEMICAL CORPORATION, priority 2014, dated 2021).

Structures are written as SMILES.

Common to all, as to type: in vivo
For one data set, the system named is transplanted rice plant. The experiment in a line: Test Example 1: effect on crop, application before weed generation in submerged conditions (symbol a). The conditions noted are these: application herbicide amount 320 g/ha. Summed up: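 Rice at 2.5 leaf stage transplanted into submerged soil (4 cm depth) sown with three weed species; herbicide applied before weed emergence.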

The next data set concerns Abutilon theophrasti. The experiment in a line: Test Example 5: herbicidal effect by foliage application, plastic box (symbol M). To be noted: 320 g/ha, 3 weeks after application. Summed up:
(§1)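 Post-emergence spray; diluvial soil (sterilized), ~1.5 cm seed cover; greenhouse 25–30° C; 14-day-old plants; water-diluted emulsion at predetermined dose; visual score at 3 wk post-treatment.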

A further data set has as its system Setaria viridis. The experiment in a line: Test Example 4: herbicidal effect by soil treatment (symbol G). The conditions noted are these: application herbicide amount 320 g/ha. A digest of the protocol: (§2)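 Seeds were sown in sterilized diluvial soil, covered with about 1.5 cm of soil, and the soil surface was sprayed with a water-diluted emulsion of the compound at a predetermined rate. Plants grew in a greenhouse at 25° C. to 30° C.; effects were scored visually 3 weeks after application.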

For data set [1], the system named is Digitaria ciliaris. The experiment in a line: Test Example 5: herbicidal effect by foliage application, plastic box (symbol F). The conditions noted are these: 320 g/ha, 3 weeks after application. Summed up:
as §1

For a further data set, the system named is Galium spurium. The experiment in a line: Test Example 4: herbicidal effect by soil treatment (symbol Q). The conditions noted are these: application herbicide amount 320 g/ha. Summed up:
as §2

The subject of a further data set is wheat. The experiment in a line: Test Example 4: effect on crop by soil treatment (symbol e). To be noted: application herbicide amount 320 g/ha. Summed up:
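Plants are raised in a greenhouse (25° C. to 30° C.) from spot-sown seed, which sits under about 1.5 cm of sterilized diluvial soil in a box shared with weed species.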

In a further data set the test system is beet. The experiment in a line: Test Example 5: effect on crop by foliage application, plastic box (symbol f). The conditions noted are these: 320 g/ha, 3 weeks after application. Summed up:
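A greenhouse held between 25° C. and 30° C. was used to grow plants sown spot-wise, beneath ~1.5 cm of soil, in boxes of sterilized diluvial soil.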

Data set [2] relates to Echinochloa crus-galli var. crus-galli. The experiment in a line: Test Example 3: herbicidal effect by foliage application, Wagner pot (symbol H). To be noted: application herbicide amount 320 g/ha. A digest of the protocol:
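Seeds sown in alluvial soil kept under 0.1–0.5 cm water, greenhouse 25–30 °C; 14 d growth. Leaves treated by small sprayer with water-diluted emulsion at a predetermined rate. Effect graded by set scale, 3 weeks.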

In data set [3] the test system is directly sowed rice plant. The experiment in a line: Test Example 3: effect on crop by foliage application, Wagner pot (symbol b). The conditions noted are these: application herbicide amount 320 g/ha. Summed up:
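Wagner pot (1/10000 are), alluvial soil, submerged 0.1–0.5 cm; sown E. crus-galli var. crus-galli, L. chinensis, C. difformis, rice; greenhouse 25–30 °C.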

Data set [4] has as its system Lolium multiflorum Lam. The experiment in a line: Test Example 4: herbicidal effect by soil treatment (symbol K). The conditions noted are these: application herbicide amount 320 g/ha. A digest of the protocol:
as §2

The next data set relates to Alopecurus myosuroides. The experiment in a line: Test Example 5: herbicidal effect by foliage application, plastic box (symbol J). To be noted: 320 g/ha, 3 weeks after application. Summed up:
as §1

For data set [5], the system named is Lolium multiflorum Lam. The experiment in a line: Test Example 5: herbicidal effect by foliage application, plastic box (symbol K). The conditions noted are these: 320 g/ha, 3 weeks after application. Summed up:
as §1

Data set [6] relates to Digitaria ciliaris. The experiment in a line: Test Example 4: herbicidal effect by soil treatment (symbol F). The conditions noted are these: application herbicide amount 320 g/ha. Summed up: as §2
For a further data set, the system named is Amaranthus retroflexus. The experiment in a line: Test Example 4: herbicidal effect by soil treatment (symbol N). To be noted: application herbicide amount 320 g/ha. A digest of the protocol:
as §2

Data set [7] concerns Chenopodium album. The experiment in a line: Test Example 5: herbicidal effect by foliage application, plastic box (symbol O). To be noted: 320 g/ha, 3 weeks after application. A digest of the protocol:
as §1

For the next data set, the system named is Veronica persica. The experiment in a line: Test Example 4: herbicidal effect by soil treatment (symbol R). The conditions noted are these: application herbicide amount 320 g/ha. Summed up:
as §2

Data set [8] has as its system Chenopodium album. The experiment in a line: Test Example 4: herbicidal effect by soil treatment (symbol O). The conditions noted are these: application herbicide amount 320 g/ha. A digest of the protocol:
as §2

In a further data set the test system is Stellaria media. The experiment in a line: Test Example 5: herbicidal effect by foliage application, plastic box (symbol P). The conditions noted are these: 320 g/ha, 3 weeks after application. A digest of the protocol: as §1

As to `CCc1cc(Br)cc(C)c1C1=C(O)CC(C(C(C)=O)C(=O)OC)C1=O` (centres unmarked) [7-001], the “Effect grade on crop, a: transplanted rice plant” value (from here on “Effect grade on crop”) in the data set with transplanted rice plant is 0 (Herbicidal ratio of 5% or lower (almost no effect)). Moreover, the “M: Abutilon theophrasti, herbicidal effect (criteria of Test Example 1)” value in the data set on Abutilon theophrasti is 0 (Herbicidal ratio of 5% or lower (almost no effect)). Also, the “Herbicidal effect grade, G: Setaria viridis” value in the data set with Setaria viridis is 4 (Herbicidal ratio of 70% or higher and lower than 90%). Also, the “F: Digitaria ciliaris, herbicidal effect (criteria of Test Example 1)” value in the data set with Digitaria ciliaris [1] was 5 (Herbicidal ratio of 90% or more (almost completely withered)). The “Herbicidal effect grade, Q: Galium spurium” value in the data set on Galium spurium is on record as 0 (Herbicidal ratio of 5% or lower (almost no effect)). The “Effect on crop grade, e: wheat” value in the data set on wheat is on record as 0 (Herbicidal ratio of 5% or lower (almost no effect)). Also, in the data set on beet, the “f: beet, effect on crop (criteria of Test Example 1)” value is given as 0 (Herbicidal ratio of 5% or lower (almost no effect)). For the same molecule, the “herbicidal effect on H (Echinochloa crus-galli var. crus-galli), grade 0-5” value (“herbicidal effect on H” below) in [2] was 4 (Herbicidal ratio of 70% or higher and lower than 90%). For the same molecule, in data set [3], the “effect on crop b (directly sowed rice plant), grade 0-5” value (“effect on crop b” for short) was 2 (Herbicidal ratio of 20% or higher and lower than 40%). Also, the “Herbicidal effect grade, K: Lolium multiflorum Lam.” value in the data set with Lolium multiflorum Lam. [4] is on record as 5 (Herbicidal ratio of 90% or more (almost completely withered)). The “J: Alopecurus myosuroides, herbicidal effect (criteria of Test Example 1)” value with Alopecurus myosuroides was 3 (Herbicidal ratio of 40% or higher and lower than 70%). For the same molecule, in the data set on Lolium multiflorum Lam. [5], the “K: Lolium multiflorum Lam., herbicidal effect (criteria of Test Example 1)” value is on record as 5 (Herbicidal ratio of 90% or more (almost completely withered)). Further, the “Herbicidal effect grade, F: Digitaria ciliaris” value with Digitaria ciliaris [6] is recorded as 5 (Herbicidal ratio of 90% or more (almost completely withered)). Further, in the data set on Amaranthus retroflexus, the “Herbicidal effect grade, N: Amaranthus retroflexus” value is 0 (Herbicidal ratio of 5% or lower (almost no effect)).
As to `CON=C(C)C(C(C)=NOC)C1CC(O)=C(c2c(C)cc(C)cc2C)C1=O` (centres unmarked) [1-021], in the data set on transplanted rice plant, the “Effect grade on crop” value is given as 0 (Herbicidal ratio of 5% or lower (almost no effect)). Also, in the data set on Abutilon theophrasti, the “M: Abutilon theophrasti, herbicidal effect grade” value is given as 0 (Herbicidal ratio of 5% or lower (almost no effect)). In the data set on Setaria viridis, the “G (Setaria viridis) herbicidal effect grade” value is 0 (Herbicidal ratio of 5% or lower (almost no effect)). The “F: Digitaria ciliaris, herbicidal effect grade” value in the data set with Digitaria ciliaris [1] is 1 (Herbicidal ratio of 5% or higher and lower than 20%). The “Q (Galium spurium) herbicidal effect grade” value in the data set on Galium spurium was 0 (Herbicidal ratio of 5% or lower (almost no effect)). Also, the “e (wheat) effect on crop grade” value with wheat is 0 (Herbicidal ratio of 5% or lower (almost no effect)). The “f: beet, effect on crop grade” value in the data set on beet was 0 (Herbicidal ratio of 5% or lower (almost no effect)). In addition, the “herbicidal effect on H” value in data set [2] was 2 (Herbicidal ratio of 20% or higher and lower than 40%). Also, the “effect on crop b” value in data set [3] is reported as 0 (Herbicidal ratio of 5% or lower (almost no effect)). Also, the “K (Lolium multiflorum Lam.) herbicidal effect grade” value in the data set with Lolium multiflorum Lam. [4] was 2 (Herbicidal ratio of 20% or higher and lower than 40%). Moreover, in the data set with Alopecurus myosuroides, the “J: Alopecurus myosuroides, herbicidal effect grade” value was 3 (Herbicidal ratio of 40% or higher and lower than 70%). In addition, the “K: Lolium multiflorum Lam., herbicidal effect grade” value in the data set on Lolium multiflorum Lam. [5] was 4 (Herbicidal ratio of 70% or higher and lower than 90%). Moreover, the “F (Digitaria ciliaris) herbicidal effect grade” value with Digitaria ciliaris [6] is listed as 0 (Herbicidal ratio of 5% or lower (almost no effect)). Besides, the “N (Amaranthus retroflexus) herbicidal effect grade” value with Amaranthus retroflexus is on record as 0 (Herbicidal ratio of 5% or lower (almost no effect)).
Turning to `CC(CC1CC(O)=C(c2c(C)cc(C)cc2C)C1=O)=NOCc1ccccc1` (centres unmarked) [1-020], the “Effect grade on crop” value in the data set with transplanted rice plant was 5 (Herbicidal ratio of 90% or more (almost completely withered)). Moreover, the “M: Abutilon theophrasti, herbicidal effect grade” value with Abutilon theophrasti was 3 (Herbicidal ratio of 40% or higher and lower than 70%). Further, the “G (Setaria viridis) herbicidal effect grade” value in the data set with Setaria viridis was 5 (Herbicidal ratio of 90% or more (almost completely withered)). In the data set on Digitaria ciliaris [1], the “F: Digitaria ciliaris, herbicidal effect grade” value was 5 (Herbicidal ratio of 90% or more (almost completely withered)). Moreover, the “Q (Galium spurium) herbicidal effect grade” value in the data set on Galium spurium is on record as 0 (Herbicidal ratio of 5% or lower (almost no effect)). Further, in the data set on wheat, the “e (wheat) effect on crop grade” value was 2 (Herbicidal ratio of 20% or higher and lower than 40%). The “f: beet, effect on crop grade” value with beet was 3 (Herbicidal ratio of 40% or higher and lower than 70%). The “herbicidal effect on H” value in [2] is recorded as 5 (Herbicidal ratio of 90% or more (almost completely withered)). Further, the “effect on crop b” value in data set [3] is given as 5 (Herbicidal ratio of 90% or more (almost completely withered)). Further, the “K (Lolium multiflorum Lam.) herbicidal effect grade” value in the data set with Lolium multiflorum Lam. [4] is reported as 5 (Herbicidal ratio of 90% or more (almost completely withered)). Moreover, the “J: Alopecurus myosuroides, herbicidal effect grade” value in the data set with Alopecurus myosuroides is given as 5 (Herbicidal ratio of 90% or more (almost completely withered)). The “K: Lolium multiflorum Lam., herbicidal effect grade” value in the data set with Lolium multiflorum Lam. [5] is 5 (Herbicidal ratio of 90% or more (almost completely withered)). For the same molecule, the “F (Digitaria ciliaris) herbicidal effect grade” value in the data set on Digitaria ciliaris [6] is reported as 5 (Herbicidal ratio of 90% or more (almost completely withered)). Besides, the “N (Amaranthus retroflexus) herbicidal effect grade” value with Amaranthus retroflexus is reported as 0 (Herbicidal ratio of 5% or lower (almost no effect)).
For the molecule `CON=C(C)CC1CC(OC(=O)N2CCOCC2)=C(c2c(C)cc(-c3ccc(Cl)cc3)cc2OC)C1=O` (centres unmarked) [6-078, 2-(4′-chloro-3-methoxy-5-methyl-[1,1′-biphenyl]-4-yl)-4-{2-(methoxyimino)propyl}-3-oxocyclopent-1-ene-1-yl morpholine-4-carboxylate], the “Effect grade on crop” value in the data set on transplanted rice plant was 5 (Herbicidal ratio of 90% or more (almost completely withered)). The “M: Abutilon theophrasti, herbicidal effect (criteria of Test Example 1)” value in the data set with Abutilon theophrasti was 4 (Herbicidal ratio of 70% or higher and lower than 90%). Moreover, in the data set on Setaria viridis, the “G: Setaria viridis, herbicidal effect grade” value is on record as 5 (Herbicidal ratio of 90% or more (almost completely withered)). Further, the “O: Chenopodium album, herbicidal effect (criteria of Test Example 1)” value with Chenopodium album [7] is 1 (Herbicidal ratio of 5% or higher and lower than 20%). The “R: Veronica persica, herbicidal effect grade” value in the data set on Veronica persica was 0 (Herbicidal ratio of 5% or lower (almost no effect)). In addition, the “F: Digitaria ciliaris, herbicidal effect (criteria of Test Example 1)” value with Digitaria ciliaris [1] is given as 5 (Herbicidal ratio of 90% or more (almost completely withered)). Further, the “O: Chenopodium album, herbicidal effect grade” value in the data set with Chenopodium album [8] is given as 0 (Herbicidal ratio of 5% or lower (almost no effect)). The “e: wheat, effect on crop grade” value with wheat is reported as 0 (Herbicidal ratio of 5% or lower (almost no effect)). Moreover, in the data set on beet, the “f: beet, effect on crop (criteria of Test Example 1)” value is 0 (Herbicidal ratio of 5% or lower (almost no effect)). The “herbicidal effect on H” value in data set [2] is 5 (Herbicidal ratio of 90% or more (almost completely withered)). Further, the “effect on crop b” value in [3] was 5 (Herbicidal ratio of 90% or more (almost completely withered)). Besides, the “K: Lolium multiflorum Lam., herbicidal effect grade” value in the data set with Lolium multiflorum Lam. [4] is listed as 0 (Herbicidal ratio of 5% or lower (almost no effect)). Moreover, the “P: Stellaria media, herbicidal effect (criteria of Test Example 1)” value with Stellaria media was 3 (Herbicidal ratio of 40% or higher and lower than 70%). In the data set with Alopecurus myosuroides, the “J: Alopecurus myosuroides, herbicidal effect (criteria of Test Example 1)” value is listed as 5 (Herbicidal ratio of 90% or more (almost completely withered)). Besides, the “K: Lolium multiflorum Lam., herbicidal effect (criteria of Test Example 1)” value in the data set on Lolium multiflorum Lam. [5] is 4 (Herbicidal ratio of 70% or higher and lower than 90%). Also, the “F: Digitaria ciliaris, herbicidal effect grade” value in the data set on Digitaria ciliaris [6] was 5 (Herbicidal ratio of 90% or more (almost completely withered)). Moreover, in the data set with Amaranthus retroflexus, the “N: Amaranthus retroflexus, herbicidal effect grade” value is given as 0 (Herbicidal ratio of 5% or lower (almost no effect)).
